In assay [1] the target is T1, Glutamate receptor ionotropic, kainate 2 (Homo sapiens, UniProt Q13002). The assay can be described thus: biochemical.
Description: Binding affinity of compound was determined against Ionotropic glutamate receptor ionotropic kainate 2 using cell membranes prepared from HEK293 cells
The next assay concerns the target Glutamate receptor 1 (Homo sapiens, UniProt P42261). The experiment in a line: biochemical.
The target of assay [2] is T2, Glutamate receptor ionotropic, kainate 5 (Homo sapiens, UniProt Q16478).
T2 sequence (Q16478 whole entry): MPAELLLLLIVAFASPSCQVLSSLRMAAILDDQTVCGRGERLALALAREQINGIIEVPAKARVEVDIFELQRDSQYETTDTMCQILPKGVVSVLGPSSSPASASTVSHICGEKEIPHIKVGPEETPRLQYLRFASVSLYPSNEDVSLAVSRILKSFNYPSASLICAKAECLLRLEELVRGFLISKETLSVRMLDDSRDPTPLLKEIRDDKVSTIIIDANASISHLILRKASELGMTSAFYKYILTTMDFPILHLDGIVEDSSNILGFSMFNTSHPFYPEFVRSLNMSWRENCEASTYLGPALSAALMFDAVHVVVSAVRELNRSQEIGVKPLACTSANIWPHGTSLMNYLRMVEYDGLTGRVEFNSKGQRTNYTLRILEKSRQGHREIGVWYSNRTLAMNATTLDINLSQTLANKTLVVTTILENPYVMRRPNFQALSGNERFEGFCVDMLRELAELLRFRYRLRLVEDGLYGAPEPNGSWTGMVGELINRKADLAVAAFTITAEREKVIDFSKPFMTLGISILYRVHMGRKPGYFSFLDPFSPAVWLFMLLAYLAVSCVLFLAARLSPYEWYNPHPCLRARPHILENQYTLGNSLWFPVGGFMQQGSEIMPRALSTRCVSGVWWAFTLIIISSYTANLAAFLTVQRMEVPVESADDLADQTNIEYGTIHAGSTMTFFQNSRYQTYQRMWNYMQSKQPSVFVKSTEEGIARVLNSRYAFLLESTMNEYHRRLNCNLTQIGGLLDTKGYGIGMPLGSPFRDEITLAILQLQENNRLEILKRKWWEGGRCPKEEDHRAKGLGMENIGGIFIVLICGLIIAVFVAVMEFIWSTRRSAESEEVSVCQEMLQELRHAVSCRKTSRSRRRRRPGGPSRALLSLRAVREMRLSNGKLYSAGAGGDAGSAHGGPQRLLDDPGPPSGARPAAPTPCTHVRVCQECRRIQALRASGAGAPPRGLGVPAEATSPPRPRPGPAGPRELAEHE
The assay can be described thus: Binding affinity of compound was determined against Glutamate receptor (KA2) using cell membranes prepared from HEK293 cells.

A further assay deals with Glutamate receptor 4 (Homo sapiens, UniProt P48058). The experiment in a line: biochemical.
The target of the next assay is Glutamate receptor 2 (Homo sapiens, UniProt P42262). The assay can be described thus: Binding affinity of compound was determined against Ionotropic glutamate receptor AMPA 2 using cell membranes prepared from HEK293 cells.
Assay [3] in a line: Selectivity of compound was determined as the ratio of Ki of Glutamate receptor 6 to that of Glutamate receptor 5.
The target in assay [4] is Glutamate receptor ionotropic, kainate 1 (Homo sapiens, UniProt P39086). The assay can be described thus: biochemical.
Description: Binding affinity of compound was determined against Ionotropic glutamate receptor ionotropic kainate 1 using cell membranes prepared from HEK293 cells
The target in assay [5] is T2, Glutamate receptor ionotropic, kainate 5. The experiment in a line: Binding affinity of compound was determined against KA2 using cell membranes prepared from HEK293 cells.
Assay [6] concerns the target T1, Glutamate receptor ionotropic, kainate 2. The assay can be described thus: Compound was tested for agonistic activity at Glutamate receptor 6 using HEK293 cells. It is filed as functional, cell-based.
Assay [7] has the same target. The assay can be described thus: Agonistic activity of compound on Glutamate receptor 6 using cell membranes prepared from HEK293 cells was expressed as percentage Rmax; ne means no effect. It is filed as functional, cell-based.

Structures are written as SMILES. Active and inactive are the calls of the source. The rule behind the calls is not given here.

The text below walks through data of ChEMBL document CHEMBL1133269, “4-Alkylidenyl glutamic acids, potent and selective GluR5 agonists” (Bioorg Med Chem Lett, 2000).

T1 sequence (Q13002 whole entry): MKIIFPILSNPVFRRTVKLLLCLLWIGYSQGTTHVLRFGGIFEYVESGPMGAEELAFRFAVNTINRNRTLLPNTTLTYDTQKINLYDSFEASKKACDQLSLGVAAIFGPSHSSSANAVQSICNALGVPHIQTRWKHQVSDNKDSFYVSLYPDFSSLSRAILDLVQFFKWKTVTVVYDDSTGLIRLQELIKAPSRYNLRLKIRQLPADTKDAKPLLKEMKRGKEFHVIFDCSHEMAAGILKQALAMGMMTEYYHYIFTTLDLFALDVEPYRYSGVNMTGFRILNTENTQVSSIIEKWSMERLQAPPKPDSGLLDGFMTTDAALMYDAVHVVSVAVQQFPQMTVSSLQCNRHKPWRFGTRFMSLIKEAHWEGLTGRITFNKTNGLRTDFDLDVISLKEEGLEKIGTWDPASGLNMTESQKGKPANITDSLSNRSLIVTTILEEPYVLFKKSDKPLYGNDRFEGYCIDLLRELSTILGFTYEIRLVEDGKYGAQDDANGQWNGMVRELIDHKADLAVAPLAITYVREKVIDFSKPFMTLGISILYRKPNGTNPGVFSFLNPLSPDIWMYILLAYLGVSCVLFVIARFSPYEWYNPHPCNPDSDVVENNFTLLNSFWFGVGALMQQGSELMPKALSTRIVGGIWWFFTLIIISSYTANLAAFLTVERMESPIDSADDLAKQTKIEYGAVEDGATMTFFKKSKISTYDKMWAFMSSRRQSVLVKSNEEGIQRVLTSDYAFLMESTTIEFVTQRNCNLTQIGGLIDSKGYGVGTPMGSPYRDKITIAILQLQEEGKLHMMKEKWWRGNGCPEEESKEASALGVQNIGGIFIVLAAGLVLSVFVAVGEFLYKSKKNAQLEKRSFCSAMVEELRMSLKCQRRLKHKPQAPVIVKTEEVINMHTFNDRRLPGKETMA
Chain of Glutamate receptor 1 (P42261 whole entry): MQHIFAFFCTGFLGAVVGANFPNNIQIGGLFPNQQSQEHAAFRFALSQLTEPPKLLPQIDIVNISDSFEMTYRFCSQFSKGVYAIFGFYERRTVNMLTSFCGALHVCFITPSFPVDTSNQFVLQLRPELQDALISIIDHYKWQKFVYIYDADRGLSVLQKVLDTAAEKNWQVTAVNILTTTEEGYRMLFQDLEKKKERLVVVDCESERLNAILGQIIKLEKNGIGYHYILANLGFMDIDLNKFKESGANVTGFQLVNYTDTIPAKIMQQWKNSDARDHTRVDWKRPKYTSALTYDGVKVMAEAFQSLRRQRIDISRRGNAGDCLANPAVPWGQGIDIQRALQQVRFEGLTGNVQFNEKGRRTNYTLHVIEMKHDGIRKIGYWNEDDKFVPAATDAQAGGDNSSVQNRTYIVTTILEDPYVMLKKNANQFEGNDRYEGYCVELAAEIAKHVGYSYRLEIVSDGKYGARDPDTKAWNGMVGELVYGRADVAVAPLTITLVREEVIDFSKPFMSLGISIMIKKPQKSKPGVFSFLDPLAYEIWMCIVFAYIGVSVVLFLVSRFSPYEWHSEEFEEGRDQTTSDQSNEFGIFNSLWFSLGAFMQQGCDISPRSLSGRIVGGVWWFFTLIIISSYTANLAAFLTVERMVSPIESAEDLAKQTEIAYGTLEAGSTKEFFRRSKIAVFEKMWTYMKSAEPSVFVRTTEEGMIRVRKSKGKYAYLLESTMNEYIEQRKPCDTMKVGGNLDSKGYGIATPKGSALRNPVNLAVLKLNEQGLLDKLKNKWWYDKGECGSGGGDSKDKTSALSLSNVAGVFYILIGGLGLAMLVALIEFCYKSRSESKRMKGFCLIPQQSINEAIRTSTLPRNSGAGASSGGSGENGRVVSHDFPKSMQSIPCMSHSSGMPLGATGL
Chain of Glutamate receptor ionotropic, kainate 1 (P39086 whole entry): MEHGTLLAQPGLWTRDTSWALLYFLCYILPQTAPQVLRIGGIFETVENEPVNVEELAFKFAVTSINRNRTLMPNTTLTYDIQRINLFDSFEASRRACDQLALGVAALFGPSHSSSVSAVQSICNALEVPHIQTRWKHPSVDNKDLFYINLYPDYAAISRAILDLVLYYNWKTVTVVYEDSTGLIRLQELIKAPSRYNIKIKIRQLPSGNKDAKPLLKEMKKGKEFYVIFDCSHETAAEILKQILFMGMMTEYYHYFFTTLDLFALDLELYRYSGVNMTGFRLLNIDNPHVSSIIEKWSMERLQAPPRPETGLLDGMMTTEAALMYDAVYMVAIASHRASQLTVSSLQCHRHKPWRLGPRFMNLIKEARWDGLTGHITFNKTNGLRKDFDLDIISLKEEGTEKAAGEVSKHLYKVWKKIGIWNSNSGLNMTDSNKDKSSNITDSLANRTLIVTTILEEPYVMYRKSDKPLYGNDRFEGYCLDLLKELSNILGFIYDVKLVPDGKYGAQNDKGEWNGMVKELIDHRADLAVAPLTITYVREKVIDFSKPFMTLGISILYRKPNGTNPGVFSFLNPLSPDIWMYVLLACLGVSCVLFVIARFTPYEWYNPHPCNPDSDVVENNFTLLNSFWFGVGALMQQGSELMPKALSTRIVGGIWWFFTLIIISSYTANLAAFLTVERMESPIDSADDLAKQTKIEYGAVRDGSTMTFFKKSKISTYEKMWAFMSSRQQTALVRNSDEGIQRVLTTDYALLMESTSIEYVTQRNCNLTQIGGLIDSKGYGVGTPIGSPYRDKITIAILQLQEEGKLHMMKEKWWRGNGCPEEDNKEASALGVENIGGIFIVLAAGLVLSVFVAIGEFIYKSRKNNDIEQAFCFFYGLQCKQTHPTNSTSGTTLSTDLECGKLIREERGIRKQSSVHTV
Chain of Glutamate receptor 2 (P42262 whole entry): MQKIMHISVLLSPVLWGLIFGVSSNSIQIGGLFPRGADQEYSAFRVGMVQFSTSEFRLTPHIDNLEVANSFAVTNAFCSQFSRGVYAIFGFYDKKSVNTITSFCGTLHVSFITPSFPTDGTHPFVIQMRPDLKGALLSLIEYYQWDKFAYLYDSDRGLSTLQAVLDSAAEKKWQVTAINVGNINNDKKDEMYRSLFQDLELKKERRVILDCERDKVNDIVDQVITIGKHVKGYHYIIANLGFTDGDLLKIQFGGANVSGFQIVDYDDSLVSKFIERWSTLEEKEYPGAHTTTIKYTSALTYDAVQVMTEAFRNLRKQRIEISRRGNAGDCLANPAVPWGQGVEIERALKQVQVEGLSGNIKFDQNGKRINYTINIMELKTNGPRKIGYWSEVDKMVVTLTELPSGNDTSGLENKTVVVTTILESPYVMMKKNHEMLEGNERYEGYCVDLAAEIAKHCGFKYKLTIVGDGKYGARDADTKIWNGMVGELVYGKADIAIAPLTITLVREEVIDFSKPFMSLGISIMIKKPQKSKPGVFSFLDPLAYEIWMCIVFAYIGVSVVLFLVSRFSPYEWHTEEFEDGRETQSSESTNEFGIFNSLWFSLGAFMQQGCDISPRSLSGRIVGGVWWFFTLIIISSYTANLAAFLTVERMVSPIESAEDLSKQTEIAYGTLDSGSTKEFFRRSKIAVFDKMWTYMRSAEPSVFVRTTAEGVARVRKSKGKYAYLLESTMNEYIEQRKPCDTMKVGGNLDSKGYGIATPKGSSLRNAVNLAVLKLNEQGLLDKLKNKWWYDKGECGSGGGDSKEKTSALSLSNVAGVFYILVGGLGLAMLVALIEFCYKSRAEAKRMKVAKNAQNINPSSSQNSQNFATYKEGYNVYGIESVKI
Chain of Glutamate receptor 4 (P48058 whole entry): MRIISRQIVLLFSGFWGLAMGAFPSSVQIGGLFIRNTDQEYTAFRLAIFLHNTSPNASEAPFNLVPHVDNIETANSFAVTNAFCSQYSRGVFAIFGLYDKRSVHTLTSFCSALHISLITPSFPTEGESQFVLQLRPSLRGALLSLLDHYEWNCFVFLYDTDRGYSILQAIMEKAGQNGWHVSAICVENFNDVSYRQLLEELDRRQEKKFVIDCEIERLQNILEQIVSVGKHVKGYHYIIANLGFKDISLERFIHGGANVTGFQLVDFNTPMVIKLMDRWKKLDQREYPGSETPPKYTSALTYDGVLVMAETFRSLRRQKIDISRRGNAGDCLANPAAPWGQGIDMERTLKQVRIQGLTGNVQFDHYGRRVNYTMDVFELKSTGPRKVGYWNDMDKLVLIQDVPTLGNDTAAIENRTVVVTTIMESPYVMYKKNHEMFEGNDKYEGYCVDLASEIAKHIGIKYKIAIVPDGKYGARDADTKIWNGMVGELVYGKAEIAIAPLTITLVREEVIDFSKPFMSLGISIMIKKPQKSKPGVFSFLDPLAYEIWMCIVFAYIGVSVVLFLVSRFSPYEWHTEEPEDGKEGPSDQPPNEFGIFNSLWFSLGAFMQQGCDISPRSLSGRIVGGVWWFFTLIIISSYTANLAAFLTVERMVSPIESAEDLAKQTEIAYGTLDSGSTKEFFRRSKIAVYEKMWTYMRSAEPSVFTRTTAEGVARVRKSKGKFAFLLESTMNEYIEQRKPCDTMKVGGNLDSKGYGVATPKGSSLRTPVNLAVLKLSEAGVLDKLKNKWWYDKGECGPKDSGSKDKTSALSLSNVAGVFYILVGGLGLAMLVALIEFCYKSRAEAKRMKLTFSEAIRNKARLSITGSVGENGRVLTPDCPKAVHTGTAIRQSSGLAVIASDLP
Description for Glutamate receptor 1: Binding affinity of compound was determined against Ionotropic glutamate receptor AMPA 1 using cell membranes prepared from HEK293 cells
Description for Glutamate receptor 4: Binding affinity of compound was determined against Ionotropic glutamate receptor AMPA 4 using cell membranes prepared from HEK293 cells

As for `C/C=C/C=C(/C[C@H](N)C(=O)O)C(=O)O`, the inhibitory constant (Ki) in assay [1] was 16.3 µM.

The molecule `CCCC/C=C(/C[C@H](N)C(=O)O)C(=O)O` had an inhibition constant (Ki) in [1] of 125 µM.

As for `CCC(CC)=C(C[C@H](N)C(=O)O)C(=O)O`, the inhibition constant Ki on Glutamate receptor 1 is more than 100 µM; in assay [2] it was 21.4 µM; at Glutamate receptor 4, 4.71 µM; on Glutamate receptor 2, 281 µM; in assay [1], 207 µM.

Consider `CC1(C)CCC/C1=C(/C[C@H](N)C(=O)O)C(=O)O`, for which the Ratio in assay [3] is more than 424. The Ki was 0.236 µM in assay [4] and more than 100 µM in [1].

In [1], `CC(C)C/C=C(\C[C@H](N)C(=O)O)C(=O)O` displayed an inhibition constant (Ki) of 634 µM.

In the case of `N[C@@H](CC(C(=O)O)=C1CCCCC1)C(=O)O`, the Ratio in [3] was determined as 49.7. Further, the inhibitory constant (Ki) in assay [4] amounted to 5.13 µM; in assay [1], 255 µM.

With `N[C@@H](CC(C(=O)O)=C1CCC1)C(=O)O`, the Ki in assay [1] was more than 100 µM.

For `N[C@@H](C[C@@H](C/C=C/c1ccc2ccccc2c1)C(=O)O)C(=O)O`, the inhibition constant (Ki) at Glutamate receptor 1 and on Glutamate receptor 2 was more than 10 µM throughout.

Take `N[C@@H](C/C(=C/CCC(c1ccccc1)c1ccccc1)C(=O)O)C(=O)O`: in assay [3], the Ratio was determined as 10. Moreover, the Ki is more than 1 µM in assay [4] and more than 10 µM in assay [1].

`N[C@@H](C/C(=C\C1CCCCC1)C(=O)O)C(=O)O`: in assay [3], the Ratio is more than 16.5. Also, the Ki in assay [4] is 6.06 µM; in assay [1], more than 100 µM.

As to `CC(C)(C)/C=C(\C[C@H](N)C(=O)O)C(=O)O`, the Ki in assay [1] is more than 100 µM.

Turning to `CC(C)=C(C[C@H](N)C(=O)O)C(=O)O`, in [3], the Ratio was more than 28.8. In addition, the figures for the Ki in assay [4] and in [1] were 13.9 µM and more than 400 µM, respectively.

For the molecule `CC(C)/C=C(\C[C@H](N)C(=O)O)C(=O)O`, the Ki at Glutamate receptor 1 came out at 0.7 µM; on Glutamate receptor 4, 5.6 µM; in assay [5] it was 7.5 µM; at Glutamate receptor 2, 3.7 µM; in [1], 82.5 µM.

In the case of `C=C(C[C@H](N)C(=O)O)C(=O)O`, affinity in assay [1] was put at a Ki of 0.45 µM.

Turning to `CC1(C)CCC/C1=C(\C[C@H](N)C(=O)O)C(=O)O`, in [3], the Ratio was determined as 12.8. Besides, the Ki was determined as 3.62 µM in [4] and 46.3 µM in assay [1].

Take `CC(C)/C=C(/C[C@H](N)C(=O)O)C(=O)O`: the Ki on Glutamate receptor 1 was 113 µM; in assay [2], 82.2 µM; on Glutamate receptor 4, 10.3 µM; on Glutamate receptor 2, 44.9 µM; in assay [1] it was more than 500 µM.

Consider `CC/C=C(/C[C@H](N)C(=O)O)C(=O)O`, for which, in assay [6], the EC50 is more than 300 µM. In assay [1], the inhibition constant (Ki) turned out to be 18 µM.

With `C=C(C)[C@H]1CN[C@H](C(=O)O)[C@H]1CC(=O)O` [KAINIC ACID], in [2], the affinity corresponds to a Ki of 0.08 µM.

Consider `N[C@@H](CC(C(=O)O)=C1CCCC1)C(=O)O`, for which the Ki at Glutamate receptor 1 was 1.1 µM; in [2], 10 µM; on Glutamate receptor 4 it was 0.533 µM; on Glutamate receptor 2, 3.68 µM; in assay [1], more than 100 µM. Moreover, the Rmax entry in [7] was “inactive”. The same molecule showed an EC50 in assay [6] of more than 100 µM.

Consider `N[C@@H](C/C(=C\CCc1ccccc1)C(=O)O)C(=O)O`, for which the Ki in assay [1] is 205 µM.

`CCC/C=C(/C[C@H](N)C(=O)O)C(=O)O` returned a Ki in assay [1] of 57.2 µM.

For `N[C@@H](C/C(=C\CCC(c1ccccc1)c1ccccc1)C(=O)O)C(=O)O`, the Ratio in [3] stood at 100. The figures for the inhibition constant (Ki) in [4] and in [1] were more than 1 µM and more than 100 µM, respectively.

On to `N[C@@H](C/C(=C\C1CCCC1)C(=O)O)C(=O)O`, for which the affinity in assay [1] corresponds to a Ki of 87.6 µM.

Take `C/C=C(/C[C@H](N)C(=O)O)C(=O)O`: the Ratio in [3] worked out at 1.14. The inhibitory constant (Ki) came to 2.2 µM in [4] and 2.5 µM in [1].

In assay [1], `N[C@@H](C/C(=C\c1ccc(Cl)cc1)C(=O)O)C(=O)O` had an inhibition constant (Ki) of 193 µM.

In assay [1], `N[C@@H](C/C(=C\C=C\c1ccccc1)C(=O)O)C(=O)O` registered a Ki of more than 100 µM.

Usually Ki stands for a measure of affinity in units of concentration, obtained from inhibition or displacement. The low end stands for higher affinity, the high end for lower affinity. What is called EC50 is the concentration at which the effect is half-maximal.
